Measured values reported in patent publication US8187878B2, “Methods for increasing definitive endoderm differentiation of pluripotent human embryonic stem cells with PI-3 kinase inhibitors” (University of Georgia Research Foundation, Inc., priority 2004, dated 2012).

What was measured:
[1] = test system: hESCs; experiment: Kidney capsule assay of LY 294002 treated hESCs; type: in vivo, SCID-beige mice; conditions: relative to LY 294002 treated cells that were not implanted
Procedure: Untreated hESCs or hESCs treated for 4 days with 60 μM LY 294002 were collagenase treated to generate cell aggregates (˜50 cells/aggregate), washed in warm media, then gently resuspended in 2 ml DMEM/F12, 10% FCS and left overnight at 37° C., 10% CO2 to facilitate further aggregation. Approximately 2.5×10^6 cells were injected into the kidney capsule of 5 week old male SCID-beige mice. 6 weeks after transplantation, mice were sacrificed, and the kidneys were removed and fixed in 4% paraformaldehyde. Following fixation, kidneys were embedded in paraffin wax, sectioned and mounted onto glass slides in preparation for H&E and immunostaining. After mounting, slides underwent deparaffinization, rehydration and heat induced epitope retrieval with Trilogy (Cell Marque, CMX-833). Slides were stained using the alkaline phosphatase Vectastain ABC System (Vector Labs, AK-5002) and Vector Red substrate (Vector Labs, SK-5100). […] For fluorescence immunocytochemistry the following secondary antibodies were used; Alexa Fluor 488 goat anti-mouse IgG (Molecular Probes, A11001), Alexa Fluor 594 goat anti-rabbit IgG (Molecular Probes, A11012).

[2] = test system: BG01 cell line; experiment: SOX17 and AFP immunofluorescence staining; type: cell-based, human
Procedure: Cells to be immunostained were grown on chamber slides, and were rinsed once with 1×PBS and fixed for 10 minutes in 4% PFA/4% sucrose in PBS pH 7.4 at room temperature. They were then rinsed 3× in 1×PBS and blocked in 3% goat serum with 0.1% Triton-X100 in PBS for 1 hour at room temperature. Primary antibodies were diluted in 3% goat serum in PBS and this solution was applied overnight at 4° C. The primary antibodies used were rabbit anti-human AFP (Zymed), used at a 1:50 dilution, and rat anti-human SOX17 (obtained from Cythera, Inc.), used at 1:1000 dilution. Cells were washed for 1 hour with 3 changes of 1×PBS. Secondary antibodies were applied for 2 hours at room temperature. Secondary antibodies used were goat anti-rabbit Alexa Fluor 488 and goat anti-rat Alexa Fluor 594 (Molecular Probes), both at a 1:1000 dilution in 3% goat serum in 1×PBS. Cells were washed for 1 hour with 3 changes of 1×PBS. The chambers were removed and slides were mounted in VectaShield mounting medium with DAPI (Vector).

[3] = test system: hESC; experiment: Sox17 Q-PCR, MEF-CM and LY 294002 with signaling inhibitors; type: cell-based, human; conditions: proteins approximately 500 ng/ml, SB-43152 approximately 10 μM, SU-5402 approximately 5 μM
Procedure: Sox 17 expression was evaluated by Q-PCR under culture conditions competent to support hESC-DE formation (MEF-CM and LY 294002) in the presence or absence of Chordin (approximately 500 ng/ml), Follistatin (approximately 500 ng/ml), Lefty-A (approximately 500 ng/ml), Noggin (approximately 500 ng/ml), SB-43152 (approximately 10 μM), and SU-5402 (approximately 5 μM). Assays were performed in triplicate and are shown as +/−SEM.

[4] = test system: BG01 cells; experiment: Sox17 Q-PCR, GSK3 inhibitor on LY 294002 induced DE formation; type: cell-based, human; conditions: 60 μM LY 294002; BIO 0.1-5 μM, MeBIO 1-5 μM; 3-4 days
Procedure: BG01 cells were passaged on matrigel using the collagenase/trypsin method as described above and were plated on matrigel-coated chamber slides in CM. After approximately 24 hours, the medium was changed, and the cells were treated with 60 μM LY 294002, BIO, meBIO, or DMSO for approximately 3-4 days. The inhibitor BIO (Dr. Ali Brivanlou) was diluted in DMSO and was used at a concentration of approximately 0.1-5 μM. MeBIO (Dr. Ali Brivanlou) was also diluted in DMSO and used at a concentration of approximately 1-5 μM. Assays were performed in triplicate and are shown as +/−SEM.
Cells were grown in these conditions for approximately 3-4 days with a medium change every 24 hours. Cells were harvested using the collagenase/trypsin method for Q-PCR as described above

[5] = test system: BG01 cells; experiment: Sox17 Q-PCR, LY 294002 with conditioned medium or TGFβ members; type: cell-based, human; conditions: UCM, approximately 4 days
Procedure: BG01 cells were passaged from feeders using the collagenase/trypsin method and were plated on matrigel coated dishes at 1×10^5 cells/35 mm dish in unconditioned hES medium (UCM). After approximately 24 hours, the media was replaced with fresh hES medium or MEF-CM, along with LY 294002, Activin A, or Nodal as shown in FIG. 8A. LY 294002 was used at a concentration of approximately 60 μM; Activin A was used at a concentration of approximately 100 ng/ml; and Nodal was used at a concentration of approximately 1 μg/ml. Cells were treated for approximately 4 days, with a change in medium every 24 hours. Cells were harvested using the collagenase/trypsin method for Q-PCR analysis. Sox-17 Q-PCR was performed as described in Example 3.

O=c1cc(N2CCOCC2)oc2c(-c3ccccc3)cccc12 [LY 294002]
increase in FABP1 mRNA [1]: 1000 fold | increase in albumin mRNA [1]: 4500 fold | cell population expressing SOX17 ([2]; counting 500 cells): 60% | cells expressing SOX17 ([2]; of 500 cells counted): 296 cells

NC(=O)c1ccc(-c2nc(-c3ccccn3)c(-c3ccc4c(c3)OCO4)[nH]2)cc1 [SB-43152]
LY 294002, MEF-CM dependent Sox17 expression [3]: suppressed

MeBIO
LY 294002 induced DE formation as determined by Sox17 expression [4]: not

O=C1Nc2cc(Br)ccc2/C1=C1/Nc2ccccc2/C1=N\O [BIO]
LY 294002 induced DE formation as determined by Sox17 expression [4]: blocked

B1: Nodal: member of the TGFβ family (protein, UniProt Q96S42 238-347, looked up)
Nodal homolog: HHLPDRSQLCRKVKFQVDFNLIGWGSWIIYPKQYNAYRCEGECPNPVGEEFHPTNHAYIQSLLKRYQPHRVPSTCCAPVKTKPLSMLYVDNGRVLLDHHKDMIVEECGCL
Sox17 expression (fold-increase over untreated) ([5]; LY 294002 approximately 60 μM plus Nodal approximately 1 μg/ml): Significant Sox17 expression

B2: Activin A: member of the TGFβ family (protein, UniProt P08476 311-426, looked up)
Inhibin beta A chain: GLECDGKVNICCKKQFFVSFKDIGWNDWIIAPSGYHANYCEGECPSHIAGTSGSSLSFHSTVINHYRMRGHSPFANLKSCCVPTKLRPMSMLYYDDGQNIIKKDIQNMIVEECGCS
Sox17 expression (fold-increase over untreated) ([5]; LY 294002 approximately 60 μM plus Activin A approximately 100 ng/ml): Significant Sox17 expression

B3: Follistatin: inhibitor of Activin signaling (protein, UniProt P19883 30-344, looked up)
Follistatin: GNCWLRQAKNGRCQVLYKTELSKEECCSTGRLSTSWTEEDVNDNTLFKWMIFNGGAPNCIPCKETCENVDCGPGKKCRMNKKNKPRCVCAPDCSNITWKGPVCGLDGKTYRNECALLKARCKEQPELEVQYQGRCKKTCRDVFCPGSSTCVVDQTNNAYCVTCNRICPEPASSEQYLCGNDGVTYSSACHLRKATCLLGRSIGLAYEGKCIKAKSCEDIQCTGGKKCLWDFKVGRGRCSLCDELCPDSKSDEPVCASDNATYASECAMKEAACSSGVLLEVKHSGSCNSISEDTEEEEEDEDQDYSFPISSILEW
LY 294002, MEF-CM dependent Sox17 expression [3]: suppressed
